The test system of the series is RAW264.7 macrophages. Kind of series: Cell accumulation experiment, transmitted light microscopy of cellular staining pattern. The following applies: for Inferred uptake: inferred from staining pattern after 72 hour incubation; for Observed cellular staining pattern (Notes): live cells, 72 hour incubation, 5 × 10^−6 M (2.5 × 10^−6 M for I); for Cellular staining relative to clofazimine: live macrophages, 72 h; for Staining in fixed cells: methanol-fixed cells incubated 72 h with compound (control). Format: cell-based.

Regarding `Clc1ccc(Nc2cc3nc4ccccc4n(-c4ccc(Cl)cc4)c-3cc2=NCCc2ccccc2)cc1` [Compound P], the Inferred uptake result is listed as “Excellent”, the “Observed cellular staining pattern (Notes)” value is “Large fibrous/crystal-like brown inclusions present in live cells”, the “Cellular staining relative to clofazimine” value is recorded as “more prominent staining patterns” and the “Staining in fixed cells” value is “absent in fixed cells”.
As for `C[C@@H](CN=c1cc2n(-c3ccc(Cl)cc3)c3ccccc3nc-2cc1Nc1ccc(Cl)cc1)c1ccccc1` [Compound U], the Inferred uptake entry is on record as “Good”, the “Observed cellular staining pattern (Notes)” value is given as “Fibrous/crystal-like brown inclusions with orange perinuclear vesicles are present in live cells”, the “Cellular staining relative to clofazimine” value is on record as “prominent cellular staining” and the “Staining in fixed cells” value is reported as “absent in fixed cells”.

These data come from article PMC4569013, “Massive Bioaccumulation and Self‐Assembly of Phenazine Compounds in Live Cells” (Advanced Science, 2015).
